Measurements: ChEMBL document CHEMBL3102702, “Protein kinase and HDAC inhibitors from the endophytic fungus Epicoccum nigrum” (J Nat Prod, 2014)

target: Focal adhesion kinase 1 (Homo sapiens, UniProt Q05397); assay: Inhibition of FAK (unknown origin)
Sequence (Q05397 whole entry): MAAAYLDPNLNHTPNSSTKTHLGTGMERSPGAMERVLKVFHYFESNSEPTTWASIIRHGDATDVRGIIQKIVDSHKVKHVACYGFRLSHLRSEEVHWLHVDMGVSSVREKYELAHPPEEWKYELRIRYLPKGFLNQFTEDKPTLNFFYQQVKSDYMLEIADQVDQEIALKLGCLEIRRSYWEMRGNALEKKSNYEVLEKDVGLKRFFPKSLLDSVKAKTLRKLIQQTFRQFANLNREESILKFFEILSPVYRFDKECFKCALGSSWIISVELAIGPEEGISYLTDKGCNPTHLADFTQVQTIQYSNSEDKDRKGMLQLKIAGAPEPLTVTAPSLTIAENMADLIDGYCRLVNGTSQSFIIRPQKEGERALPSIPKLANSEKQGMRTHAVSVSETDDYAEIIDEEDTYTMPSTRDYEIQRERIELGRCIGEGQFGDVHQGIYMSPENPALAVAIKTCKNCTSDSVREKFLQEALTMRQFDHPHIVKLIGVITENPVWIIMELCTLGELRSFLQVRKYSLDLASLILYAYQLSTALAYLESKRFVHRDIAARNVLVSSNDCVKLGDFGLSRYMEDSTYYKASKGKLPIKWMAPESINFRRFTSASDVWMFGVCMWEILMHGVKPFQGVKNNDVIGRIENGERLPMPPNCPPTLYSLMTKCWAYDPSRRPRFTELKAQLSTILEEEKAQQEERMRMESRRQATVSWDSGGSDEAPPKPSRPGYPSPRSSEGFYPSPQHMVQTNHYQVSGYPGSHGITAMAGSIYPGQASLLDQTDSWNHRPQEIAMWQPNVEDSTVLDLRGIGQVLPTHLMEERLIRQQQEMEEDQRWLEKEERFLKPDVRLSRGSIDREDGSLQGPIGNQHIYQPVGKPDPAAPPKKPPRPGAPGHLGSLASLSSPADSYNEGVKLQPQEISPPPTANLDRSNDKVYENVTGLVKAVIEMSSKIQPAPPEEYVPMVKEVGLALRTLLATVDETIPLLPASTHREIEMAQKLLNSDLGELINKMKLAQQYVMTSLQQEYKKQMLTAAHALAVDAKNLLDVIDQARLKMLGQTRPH

Compared with `COC1OC(=O)c2c(O)c(O)c(O)c(C)c21` (racemic), `O=c1c(O)c(-c2ccc(O)c(O)c2)oc2cc(O)cc(O)c12` [QUERCETIN] is 14-fold lower in IC50: 16.3 µM for the first, 1.2 µM for the second.

target: ALK tyrosine kinase receptor (Homo sapiens, UniProt Q9UM73); assay: Inhibition of ALK (unknown origin)
Sequence (Q9UM73 whole entry): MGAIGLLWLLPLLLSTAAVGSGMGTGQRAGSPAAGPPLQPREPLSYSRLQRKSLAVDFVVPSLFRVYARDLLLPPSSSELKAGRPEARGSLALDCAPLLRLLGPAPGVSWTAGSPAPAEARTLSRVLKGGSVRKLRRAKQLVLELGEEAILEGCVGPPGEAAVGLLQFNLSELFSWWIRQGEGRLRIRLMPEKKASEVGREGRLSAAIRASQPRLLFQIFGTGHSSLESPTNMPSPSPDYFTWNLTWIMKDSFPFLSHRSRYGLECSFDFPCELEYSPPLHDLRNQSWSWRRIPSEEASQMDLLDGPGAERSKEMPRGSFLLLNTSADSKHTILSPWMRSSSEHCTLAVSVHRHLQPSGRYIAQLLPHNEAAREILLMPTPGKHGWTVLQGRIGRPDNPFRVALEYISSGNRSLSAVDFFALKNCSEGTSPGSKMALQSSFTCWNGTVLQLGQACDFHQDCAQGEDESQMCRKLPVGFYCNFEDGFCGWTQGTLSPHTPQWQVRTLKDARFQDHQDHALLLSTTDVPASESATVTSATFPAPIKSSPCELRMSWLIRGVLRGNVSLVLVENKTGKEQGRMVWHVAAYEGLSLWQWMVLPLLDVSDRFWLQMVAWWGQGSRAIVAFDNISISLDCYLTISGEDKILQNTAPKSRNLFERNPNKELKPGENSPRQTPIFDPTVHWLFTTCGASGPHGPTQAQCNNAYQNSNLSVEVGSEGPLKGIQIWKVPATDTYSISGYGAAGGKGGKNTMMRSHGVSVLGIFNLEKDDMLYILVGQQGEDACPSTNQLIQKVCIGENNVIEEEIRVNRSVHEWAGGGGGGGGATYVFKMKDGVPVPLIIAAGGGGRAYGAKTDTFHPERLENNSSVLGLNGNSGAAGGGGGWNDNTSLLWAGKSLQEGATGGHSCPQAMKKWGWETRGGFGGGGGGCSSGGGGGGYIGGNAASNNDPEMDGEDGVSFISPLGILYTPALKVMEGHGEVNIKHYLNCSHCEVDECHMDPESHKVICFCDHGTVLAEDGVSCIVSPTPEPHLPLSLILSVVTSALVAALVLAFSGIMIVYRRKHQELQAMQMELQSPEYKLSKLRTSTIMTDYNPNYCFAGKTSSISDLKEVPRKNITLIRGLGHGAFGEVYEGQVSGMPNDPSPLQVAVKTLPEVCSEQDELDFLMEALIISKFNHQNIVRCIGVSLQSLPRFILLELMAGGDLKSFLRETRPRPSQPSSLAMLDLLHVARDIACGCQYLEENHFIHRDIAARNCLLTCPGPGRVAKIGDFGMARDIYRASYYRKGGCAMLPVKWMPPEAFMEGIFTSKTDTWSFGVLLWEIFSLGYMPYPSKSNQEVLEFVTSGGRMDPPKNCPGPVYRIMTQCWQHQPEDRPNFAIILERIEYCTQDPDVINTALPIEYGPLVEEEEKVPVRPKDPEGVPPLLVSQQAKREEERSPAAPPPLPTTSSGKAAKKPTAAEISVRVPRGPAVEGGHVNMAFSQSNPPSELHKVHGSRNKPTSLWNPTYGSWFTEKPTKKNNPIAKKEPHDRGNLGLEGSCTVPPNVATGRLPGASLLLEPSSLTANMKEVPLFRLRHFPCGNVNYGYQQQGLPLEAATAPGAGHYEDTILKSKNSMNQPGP

Going from `COC1OC(=O)c2c(O)c(O)c(O)c(C)c21` (racemic) to `O=c1c(O)c(-c2ccc(O)c(O)c2)oc2cc(O)cc(O)c12` [QUERCETIN], the IC50 falls from 9.76 µM to 3.32 µM (2.9-fold). The second is the more potent here.

target: Insulin-like growth factor 1 receptor (Homo sapiens, UniProt P08069); assay: Inhibition of IGF1R (unknown origin)
Sequence (P08069 31-736 limits assumed): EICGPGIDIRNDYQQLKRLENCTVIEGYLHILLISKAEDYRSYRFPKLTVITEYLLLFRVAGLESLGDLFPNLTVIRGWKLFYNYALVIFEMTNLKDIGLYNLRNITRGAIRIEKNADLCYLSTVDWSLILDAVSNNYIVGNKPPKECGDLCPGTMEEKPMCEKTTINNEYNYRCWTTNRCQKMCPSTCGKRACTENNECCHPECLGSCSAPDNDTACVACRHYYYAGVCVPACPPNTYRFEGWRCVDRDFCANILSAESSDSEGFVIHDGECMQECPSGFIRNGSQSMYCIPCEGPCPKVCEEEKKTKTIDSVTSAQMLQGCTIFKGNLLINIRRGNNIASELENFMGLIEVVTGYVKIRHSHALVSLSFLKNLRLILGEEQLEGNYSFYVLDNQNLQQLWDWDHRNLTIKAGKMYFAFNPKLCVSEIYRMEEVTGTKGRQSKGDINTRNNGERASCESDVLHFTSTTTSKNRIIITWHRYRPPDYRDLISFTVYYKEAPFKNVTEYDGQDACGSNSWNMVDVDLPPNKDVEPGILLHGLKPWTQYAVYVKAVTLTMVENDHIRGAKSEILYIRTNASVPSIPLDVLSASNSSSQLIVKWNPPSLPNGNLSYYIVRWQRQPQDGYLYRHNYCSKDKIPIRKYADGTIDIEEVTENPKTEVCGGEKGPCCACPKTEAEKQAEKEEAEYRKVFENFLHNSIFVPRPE
Sequence (P08069 741-1367 limits assumed): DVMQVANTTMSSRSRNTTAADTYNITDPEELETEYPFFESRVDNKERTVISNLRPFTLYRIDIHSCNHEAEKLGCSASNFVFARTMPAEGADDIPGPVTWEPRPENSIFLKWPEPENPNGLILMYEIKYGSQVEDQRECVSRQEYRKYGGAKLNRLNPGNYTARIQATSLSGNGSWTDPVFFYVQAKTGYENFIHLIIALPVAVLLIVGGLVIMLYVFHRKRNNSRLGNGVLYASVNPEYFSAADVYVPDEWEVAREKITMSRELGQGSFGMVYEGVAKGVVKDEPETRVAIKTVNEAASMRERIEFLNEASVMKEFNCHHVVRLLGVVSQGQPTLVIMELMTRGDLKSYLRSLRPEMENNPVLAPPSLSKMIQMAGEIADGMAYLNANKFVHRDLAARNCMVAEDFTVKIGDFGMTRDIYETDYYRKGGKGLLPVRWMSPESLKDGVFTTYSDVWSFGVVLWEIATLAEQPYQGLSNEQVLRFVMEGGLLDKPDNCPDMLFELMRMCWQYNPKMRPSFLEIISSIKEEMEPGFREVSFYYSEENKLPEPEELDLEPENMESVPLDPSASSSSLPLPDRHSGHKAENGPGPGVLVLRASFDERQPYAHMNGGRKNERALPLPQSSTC

Going from `COC1OC(=O)c2c(O)c(O)c(O)c(C)c21` (racemic) to `O=c1c(O)c(-c2ccc(O)c(O)c2)oc2cc(O)cc(O)c12` [QUERCETIN], the IC50 falls from 2.04 µM to 0.3 µM (6.8-fold). The second is the more potent here.

target: T1, Tyrosine-protein kinase receptor UFO (Homo sapiens, UniProt P30530); assay: Inhibition of AXL (unknown origin)
T1 sequence (P30530 whole entry): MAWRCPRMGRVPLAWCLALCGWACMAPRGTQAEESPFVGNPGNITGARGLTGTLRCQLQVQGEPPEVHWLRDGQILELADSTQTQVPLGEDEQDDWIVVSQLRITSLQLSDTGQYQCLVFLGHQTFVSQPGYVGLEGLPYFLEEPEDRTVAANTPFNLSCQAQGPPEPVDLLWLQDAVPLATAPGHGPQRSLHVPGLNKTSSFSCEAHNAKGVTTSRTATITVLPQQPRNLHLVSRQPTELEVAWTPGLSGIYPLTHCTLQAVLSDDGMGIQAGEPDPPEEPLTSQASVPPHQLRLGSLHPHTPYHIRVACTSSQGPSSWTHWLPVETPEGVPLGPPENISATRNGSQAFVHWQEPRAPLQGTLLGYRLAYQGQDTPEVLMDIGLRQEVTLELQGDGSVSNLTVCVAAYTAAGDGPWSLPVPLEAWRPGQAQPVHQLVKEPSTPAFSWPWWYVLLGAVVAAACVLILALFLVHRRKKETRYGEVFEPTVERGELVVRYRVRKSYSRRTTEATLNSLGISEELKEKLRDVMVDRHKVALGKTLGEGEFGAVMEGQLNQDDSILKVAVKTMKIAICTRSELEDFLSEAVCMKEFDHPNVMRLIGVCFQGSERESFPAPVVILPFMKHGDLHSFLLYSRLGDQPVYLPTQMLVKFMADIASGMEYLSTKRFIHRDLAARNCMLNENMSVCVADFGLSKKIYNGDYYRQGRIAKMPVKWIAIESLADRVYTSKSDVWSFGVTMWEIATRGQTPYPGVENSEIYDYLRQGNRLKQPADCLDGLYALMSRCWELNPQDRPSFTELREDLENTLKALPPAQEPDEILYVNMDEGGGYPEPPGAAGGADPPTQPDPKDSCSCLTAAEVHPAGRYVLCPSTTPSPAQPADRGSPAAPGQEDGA

First: COC1OC(=O)c2c(O)c(O)c(O)c(C)c21 (racemic)
Second: O=c1c(O)c(-c2ccc(O)c(O)c2)oc2cc(O)cc(O)c12 [QUERCETIN]
The IC50 of the first is 6.7-fold higher: 6.39 µM for the first, 0.96 µM for the second.

target: T2, Serine/threonine-protein kinase Nek2 (Homo sapiens, UniProt P51955); assay: Inhibition of NEK2 (unknown origin)
T2 sequence (P51955 whole entry): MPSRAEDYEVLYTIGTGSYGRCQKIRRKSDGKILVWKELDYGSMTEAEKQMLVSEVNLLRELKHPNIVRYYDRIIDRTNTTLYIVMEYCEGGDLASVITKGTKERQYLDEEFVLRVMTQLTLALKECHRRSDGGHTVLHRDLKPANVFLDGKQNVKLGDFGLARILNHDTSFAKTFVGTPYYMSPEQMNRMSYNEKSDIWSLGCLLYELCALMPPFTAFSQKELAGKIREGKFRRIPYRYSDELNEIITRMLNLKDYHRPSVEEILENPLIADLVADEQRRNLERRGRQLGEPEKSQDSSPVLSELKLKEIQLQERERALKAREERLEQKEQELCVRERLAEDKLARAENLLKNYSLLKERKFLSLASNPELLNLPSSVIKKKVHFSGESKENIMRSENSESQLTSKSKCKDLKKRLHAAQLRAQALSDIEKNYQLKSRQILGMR

First: COC1OC(=O)c2c(O)c(O)c(O)c(C)c21 (racemic)
Second: O=c1c(O)c(-c2ccc(O)c(O)c2)oc2cc(O)cc(O)c12 [QUERCETIN]
The IC50 of the first is 2.1-fold higher: 11.8 µM for the first, 5.73 µM for the second. The second is the more potent here.

target: Vascular endothelial growth factor receptor 2 (Homo sapiens, UniProt P35968); assay: Inhibition of VEGFR2 (unknown origin)

`COC1OC(=O)c2c(O)c(O)c(O)c(C)c21` (racemic) gave an IC50 of 26.4 µM.

target: RAC-alpha serine/threonine-protein kinase (Homo sapiens, UniProt P31749); assay: Inhibition of AKT1 (unknown origin)

Compared with `COC1OC(=O)c2c(O)c(O)c(O)c(C)c21` (racemic), `O=c1c(O)c(-c2ccc(O)c(O)c2)oc2cc(O)cc(O)c12` [QUERCETIN] is lower in IC50: greater than 30 µM for the first, 5.39 µM for the second.

target: Serine/threonine-protein kinase N1 (Homo sapiens, UniProt Q16512); assay: Inhibition of PRK1 (unknown origin)

First: COC1OC(=O)c2c(O)c(O)c(O)c(C)c21 (racemic)
Second: O=c1c(O)c(-c2ccc(O)c(O)c2)oc2cc(O)cc(O)c12 [QUERCETIN]
The IC50 of the first is higher: greater than 30 µM for the first, 5.8 µM for the second.

target: T3, NUAK family SNF1-like kinase 1 (Homo sapiens, UniProt O60285); assay: Inhibition of ARK5 (unknown origin)
T3 sequence (O60285 whole entry): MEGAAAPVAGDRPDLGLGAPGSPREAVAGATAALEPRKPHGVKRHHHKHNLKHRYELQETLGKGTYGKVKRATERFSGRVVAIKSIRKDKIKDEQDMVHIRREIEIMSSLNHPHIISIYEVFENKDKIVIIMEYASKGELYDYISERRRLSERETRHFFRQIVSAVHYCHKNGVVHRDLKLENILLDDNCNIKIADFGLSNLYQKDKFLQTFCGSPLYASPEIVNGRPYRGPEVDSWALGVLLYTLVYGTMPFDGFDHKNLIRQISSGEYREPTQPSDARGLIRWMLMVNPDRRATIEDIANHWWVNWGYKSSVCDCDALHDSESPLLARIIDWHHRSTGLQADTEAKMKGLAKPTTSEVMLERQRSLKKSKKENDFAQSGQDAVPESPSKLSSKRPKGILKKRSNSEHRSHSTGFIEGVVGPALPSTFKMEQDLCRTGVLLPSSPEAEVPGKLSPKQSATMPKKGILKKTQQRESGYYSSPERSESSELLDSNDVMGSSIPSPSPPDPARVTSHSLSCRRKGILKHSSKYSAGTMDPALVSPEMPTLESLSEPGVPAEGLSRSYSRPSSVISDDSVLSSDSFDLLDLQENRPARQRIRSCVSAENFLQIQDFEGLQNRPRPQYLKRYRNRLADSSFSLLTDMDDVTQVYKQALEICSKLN

Compared with `COC1OC(=O)c2c(O)c(O)c(O)c(C)c21` (racemic), `O=c1c(O)c(-c2ccc(O)c(O)c2)oc2cc(O)cc(O)c12` [QUERCETIN] is 5.9-fold lower in IC50: 29.8 µM for the first, 5.09 µM for the second. The second is the more potent here.

target: Aurora kinase B (Homo sapiens, UniProt Q96GD4); assay: Inhibition of aurora-B (unknown origin)

First: COC1OC(=O)c2c(O)c(O)c(O)c(C)c21 (racemic)
Second: O=c1c(O)c(-c2ccc(O)c(O)c2)oc2cc(O)cc(O)c12 [QUERCETIN]
The IC50 of the first is 25-fold higher: 22.6 µM for the first, 0.91 µM for the second.

target: Serine/threonine-protein kinase Nek6 (Homo sapiens, UniProt Q9HC98); assay: Inhibition of NEK6 (unknown origin)

First: COC1OC(=O)c2c(O)c(O)c(O)c(C)c21 (racemic)
Second: O=c1c(O)c(-c2ccc(O)c(O)c2)oc2cc(O)cc(O)c12 [QUERCETIN]
The IC50 of the first is higher: greater than 30 µM for the first, 4.23 µM for the second. The second is the more potent here.

target: Serine/threonine-protein kinase pim-1 (Homo sapiens, UniProt P11309); assay: Inhibition of PIM1 (unknown origin)

In the case of `COC1OC(=O)c2c(O)c(O)c(O)c(C)c21` (racemic), the IC50 is reported as greater than 30 µM.

target: Proto-oncogene tyrosine-protein kinase Src (Homo sapiens, UniProt P12931); assay: Inhibition of SRC (unknown origin)
Sequence (P12931 2-536 limits assumed): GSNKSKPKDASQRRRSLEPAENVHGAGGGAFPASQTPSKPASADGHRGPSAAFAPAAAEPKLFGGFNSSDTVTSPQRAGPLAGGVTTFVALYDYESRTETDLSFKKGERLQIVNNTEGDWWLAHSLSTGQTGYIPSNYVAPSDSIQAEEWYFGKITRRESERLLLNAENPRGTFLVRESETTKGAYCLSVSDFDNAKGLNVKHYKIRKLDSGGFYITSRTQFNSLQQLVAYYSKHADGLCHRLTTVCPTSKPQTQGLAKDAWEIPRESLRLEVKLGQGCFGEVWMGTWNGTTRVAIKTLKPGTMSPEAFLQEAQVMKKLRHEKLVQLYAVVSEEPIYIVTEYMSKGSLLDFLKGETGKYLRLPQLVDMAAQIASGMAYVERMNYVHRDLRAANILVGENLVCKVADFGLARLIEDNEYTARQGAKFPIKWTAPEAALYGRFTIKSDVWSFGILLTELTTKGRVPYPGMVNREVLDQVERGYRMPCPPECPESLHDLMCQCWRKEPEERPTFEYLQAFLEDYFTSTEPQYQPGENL

Going from `COC1OC(=O)c2c(O)c(O)c(O)c(C)c21` (racemic) to `O=c1c(O)c(-c2ccc(O)c(O)c2)oc2cc(O)cc(O)c12` [QUERCETIN], the IC50 falls from 12.6 µM to 0.12 µM (100-fold).

target: Serine/threonine-protein kinase PLK1 (Homo sapiens, UniProt P53350); assay: Inhibition of PLK1 (unknown origin)

`COC1OC(=O)c2c(O)c(O)c(O)c(C)c21` (racemic) gave an IC50 greater than 30 µM.

target: Hepatocyte growth factor receptor (Homo sapiens, UniProt P08581); assay: Inhibition of wild type MET (unknown origin)

Going from `COC1OC(=O)c2c(O)c(O)c(O)c(C)c21` (racemic) to `O=c1c(O)c(-c2ccc(O)c(O)c2)oc2cc(O)cc(O)c12` [QUERCETIN], the IC50 falls from 9.65 µM to 0.58 µM (17-fold). The second is the more potent here.

target: Dual specificity mitogen-activated protein kinase kinase 1 (Homo sapiens, UniProt Q02750); assay: Inhibition of wild type MEK1 (unknown origin)
Sequence (Q02750 whole entry): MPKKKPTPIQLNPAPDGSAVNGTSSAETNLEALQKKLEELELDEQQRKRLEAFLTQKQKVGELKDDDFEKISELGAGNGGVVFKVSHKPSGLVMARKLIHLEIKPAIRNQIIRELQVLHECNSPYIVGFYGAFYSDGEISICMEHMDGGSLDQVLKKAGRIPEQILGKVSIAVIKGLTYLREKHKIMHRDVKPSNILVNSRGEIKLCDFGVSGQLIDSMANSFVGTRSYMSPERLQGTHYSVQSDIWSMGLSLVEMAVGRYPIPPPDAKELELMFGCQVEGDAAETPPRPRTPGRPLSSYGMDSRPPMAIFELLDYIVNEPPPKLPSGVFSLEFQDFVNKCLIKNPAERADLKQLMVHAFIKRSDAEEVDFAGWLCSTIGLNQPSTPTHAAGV

`COC1OC(=O)c2c(O)c(O)c(O)c(C)c21` (racemic) and `O=c1c(O)c(-c2ccc(O)c(O)c2)oc2cc(O)cc(O)c12` [QUERCETIN] cannot be ordered by IC50: greater than 30 µM for the first, greater than 10 µM for the second.
